# Source: patent US5260060A, “Fibrinolytic enzymes” (priority 1991, dated 1993)
# Key:
# thermolysin = target: T1, thermolysin (Bacillus thermoproteolyticus, UniProt P00800); settings: cited from earlier work
# T1 sequence (P00800 233-548): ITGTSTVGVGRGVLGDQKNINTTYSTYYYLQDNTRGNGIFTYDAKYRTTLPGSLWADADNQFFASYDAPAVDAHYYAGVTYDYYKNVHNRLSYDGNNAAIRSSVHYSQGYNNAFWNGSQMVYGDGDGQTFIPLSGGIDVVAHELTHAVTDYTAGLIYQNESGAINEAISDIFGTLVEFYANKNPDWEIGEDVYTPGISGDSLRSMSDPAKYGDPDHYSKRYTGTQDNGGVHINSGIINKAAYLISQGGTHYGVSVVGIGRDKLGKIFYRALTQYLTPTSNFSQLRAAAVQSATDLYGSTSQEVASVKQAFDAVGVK
# Accfib = Accfib (Agkistrodon contortrix contortrix, UniProt P28891); assay: biochemical
# Chain of Accfib (P28891 whole entry, looked up): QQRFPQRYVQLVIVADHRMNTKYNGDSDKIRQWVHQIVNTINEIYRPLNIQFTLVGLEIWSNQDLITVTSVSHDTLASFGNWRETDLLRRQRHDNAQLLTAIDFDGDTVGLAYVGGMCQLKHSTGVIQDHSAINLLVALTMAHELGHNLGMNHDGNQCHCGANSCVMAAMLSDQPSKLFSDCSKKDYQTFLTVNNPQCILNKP
compound,measurement,setting,value
"CC(C)CC(C(=O)NO)C(=O)N[C@@H](C)C(=O)NCC(N)=O (stereo partly drawn) [Zincov, 2-(N-hydroxycarboxamido)-4-methylpentanoyl-L-alanyl-glycine amide]",Ki,thermolysin,480 nM
same,Ki,Accfib,16 mM
